Experimental data: patent US5001064A, “Phosphatidylinositol 4-kinase” (Washington University, priority 1988, dated 1991)
“Also recorded” adds a separate entry of the source. Values belong to the compound of their own block, whether it stands above or below them.

How the values were obtained:
Format in all cases: biochemical, bovine
PtdIns 4-kinase [1] = molecular target: T1, PtdIns 4-kinase (Bos taurus, UniProt A6QLN5); experiment: Specificity of PtdIns 4-kinase for a lipid substrate; conditions: for Relative activity with lipid added: lipid 0.25 mg/ml, organic extractable label, background subtracted, PtdIns (soybean) = 100; for phosphorylation of lipid by the purified enzyme: standard assay buffer with the indicated lipid
T1 construct: It constitutes the major PtdIns 4-kinase activity of bovine uteri; from tissue; host or cells: bovine uterus (acetone powder, purified over ammonium sulfate, Mono Q, S-Sepharose, Mono Q, Mono P and hydroxylapatite)
Method: (§1) PtdIns 4-kinase activity was assayed in 60 μl at 30° C. in 20 mM BisTris-HCl (pH 7.0), 10 mM MgCl2, 1.0% Triton X-100, 0.25 mg/ml phosphatidylinositol, and 150 μM ATP (1.25 μCi[-^32 P]ATP), unless otherwise noted. The reaction was terminated by the addition of 12 μl of cold HCl, 120 μl of cold methanol, 150 μl of chloroform, and 40 μl of H2 O. The extracted samples were centrifuged at 12,000 × g for 1 min. and the aqueous layer removed and discarded. When needed, the organic phase was washed with 40 μl of cold methanol and 40 μl of cold 1.0 N HCl, centrifuged at 12,000 × g, and the aqueous layer was removed. The organic phase was then dried under vacuum in a Savant speed-vac, resuspended in 40 μl of chloroform/methanol (2:1), and chromatographed on potassium oxalate-impregnated Silica Gel 60 thin layer chromatography plates (TLC). The solvent system used consisted of chloroform/methanol/ammonium hydroxide/water (51:39.6:3:8.4). For two-dimensional thin layer chromatography, the preceding solvent system was used for the first dimension, and chloroform/methanol/acetic acid/water (50:39:1:10) was used for the second dimension. Standards were visualized by exposing the TLC plate to iodine vapor. The reaction product, phosphatidylinositol 4-phosphate, was visualized by autoradiography, and the corresponding area of the TLC plate was scraped and quantitated by Cherenkov counting. This assay was linear with respect to both protein concentration and time. For tests utilizing [^3 H]PtdIns, the corresponding areas of the TLC plates were scraped and the silica powder was suspended in a gel of Aquasol/H2 O (4:1) before counting. All assays (except column fractions) were done in duplicate or triplicate.
The specificity of PtdIns 4-kinase for lipid substrates was also examined using standard assay buffer containing […] of the indicated lipid. After extraction the organic phase was washed three times, dried in vacuo, and the organic extractable label was quantitated. Control reactions (no lipid) established background levels which were then subtracted from the experimentally derived values (Table III). […] The sensitivity of the above technique was limited and appeared to show little or no activity with lyso-PtdIns; however, subsequent TLC of these reactions established that the enzyme would phosphorylate lyso-PtdIns about 10% as well as soybean Ptdlns. […] Except for lyso-Ptdlns, the results presented in Table III were confirmed by thin layer chromatography.

PtdIns 4-kinase [2] = molecular target: T1, PtdIns 4-kinase; experiment: Specificity of PtdIns 4-kinase for a nucleotide phosphoryl donor ([3H]PtdIns as substrate); conditions: for utilization as phosphoryl donor (words): [3H]PtdIns as substrate; for activity at 150 µM: read-out: Relative activity with nucleotide donor
Method: as §1, with “This assay was linear with respect to both protein concentration and time.” left out

PtdIns 4-kinase [3] = molecular target: T1, PtdIns 4-kinase; experiment: Effect of potential inhibitors on PtdIns 4-kinase activity; conditions: for effectiveness as inhibitor / relative activity at 1000 µM / Relative activity with potential inhibitor: PtdIns 0.1 mg/ml; for effectiveness as inhibitor: soluble compounds approximately 10-fold above the PtdIns concentration; for relative activity at 1000 µM: read-out: Relative activity with potential inhibitor, heading: Relative activity with potential inhibitor; for inhibition: approximately 5-fold molar excess over PtdIns (0.1 mg/ml)
Method: as §1, with “This assay was linear with respect to both protein concentration and time.” left out
Various PtdIns-related compounds were tested as possible inhibitors of this purified PtdIns 4-kinase. A concentration of PtdIns of 0.1 mg/ml was used in these tests to accentuate possible competitive inhibition by potential inhibitors (Table IV).

[4] = nucleotide donor 150 μM, ATP = 100

T1 sequence (A6QLN5 1-479): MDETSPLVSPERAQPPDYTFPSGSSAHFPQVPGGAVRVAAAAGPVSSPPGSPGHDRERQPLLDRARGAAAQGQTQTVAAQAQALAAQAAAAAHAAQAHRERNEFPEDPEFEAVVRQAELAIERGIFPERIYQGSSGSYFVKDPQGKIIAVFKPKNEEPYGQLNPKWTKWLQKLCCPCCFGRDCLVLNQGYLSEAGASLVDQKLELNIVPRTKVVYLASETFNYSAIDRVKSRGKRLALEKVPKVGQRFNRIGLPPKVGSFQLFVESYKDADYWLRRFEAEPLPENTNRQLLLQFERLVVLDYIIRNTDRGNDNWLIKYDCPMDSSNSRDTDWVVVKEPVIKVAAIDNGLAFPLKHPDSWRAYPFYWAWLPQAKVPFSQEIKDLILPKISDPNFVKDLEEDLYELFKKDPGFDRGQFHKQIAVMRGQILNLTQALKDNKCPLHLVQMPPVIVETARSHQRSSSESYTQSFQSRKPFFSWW

Compound: Nc1ncnc2c1ncn2[C@@H]1O[C@H](COP(=O)(O)OP(=O)(O)O)[C@@H](O)[C@H]1O [ADP]
- utilization as phosphoryl donor (words) (PtdIns 4-kinase [2]): No PtdIns-4-P was observed; also recorded: No PtdIns-4-P 5-kinase activity was present
- activity at 150 µM (PtdIns 4-kinase [2]; [4]): 12%

Compound: Nc1ccn([C@@H]2O[C@H](COP(=O)(O)OP(=O)(O)OP(=O)(O)O)[C@@H](O)[C@H]2O)c(=O)n1 [CTP]
- utilization as phosphoryl donor (words) (PtdIns 4-kinase [2]): No PtdIns-4-P was observed; also recorded: No PtdIns-4-P 5-kinase activity was present
- activity at 150 µM (PtdIns 4-kinase [2]; [4]): 10%

Compound: O=P(O)(OCC(O)CO)O[C@@H]1[C@H](O)[C@H](O)[C@@H](O)[C@H](O)[C@H]1O (stereo partly drawn) [Glycerophospho-D-myo-inositol]
- effectiveness as inhibitor (PtdIns 4-kinase [3]): ineffective as inhibitors
- relative activity at 1000 µM (PtdIns 4-kinase [3]; inhibitor 1.0 mM): 86%

Compound: OC1C(O)C(O)C2(CO2)C(O)C1O (stereo not drawn) [Inositol 2,2'-anhydro-2-C-hydroxymethyl]
- effectiveness as inhibitor (PtdIns 4-kinase [3]): ineffective as inhibitors
- relative activity at 1000 µM (PtdIns 4-kinase [3]; inhibitor 1.0 mM): 118%

Compound: CCCCCCCCCCCCCCCC(=O)OC[C@H](COP(=O)(O)O[C@H]1[C@H](O)[C@@H](O)[C@H](OP(=O)(O)O)[C@@H](OP(=O)(O)O)[C@H]1O)OC(=O)CCCCCCCCCCCCCCC [PtdIns-4,5-P2, phosphatidylinositol 4,5-diphosphate]
- Relative activity with lipid added (PtdIns 4-kinase [1]): 0%
- phosphorylation of lipid by the purified enzyme (PtdIns 4-kinase [1]): nor would it phosphorylate
- effectiveness as inhibitor (PtdIns 4-kinase [3]): Neither PtdIns-4-P or PtdIns-4,5-P2 were effective inhibitors
- inhibition (PtdIns 4-kinase [3]): 59%
- Relative activity with potential inhibitor (PtdIns 4-kinase [3]; inhibitor 0.02 mg/ml): 109%
- Relative activity with potential inhibitor (PtdIns 4-kinase [3]; inhibitor 0.10 mg/ml): 101%
- Relative activity with potential inhibitor (PtdIns 4-kinase [3]; inhibitor 0.50 mg/ml): 41%

Compound: L-α-phosphatidylethanolamine
- Relative activity with lipid added (PtdIns 4-kinase [1]): 0%
- phosphorylation of lipid by the purified enzyme (PtdIns 4-kinase [1]): no phosphorylation

Compound: Phosphatidylinositol [PtdIns (bovine)]
- Relative activity with lipid added (PtdIns 4-kinase [1]): 110%
- phosphorylation of lipid by the purified enzyme (PtdIns 4-kinase [1]): able to phosphorylate

Compound: Phosphatidylinositol [PtdIns (soybean)]
- Relative activity with lipid added (PtdIns 4-kinase [1]): 100%
- phosphorylation of lipid by the purified enzyme (PtdIns 4-kinase [1]): able to phosphorylate

Compound: galactocerebrosides (mixed)
- Relative activity with lipid added (PtdIns 4-kinase [1]): 0%
- phosphorylation of lipid by the purified enzyme (PtdIns 4-kinase [1]): would not phosphorylate

Compound: glucocerebrosides
- Relative activity with lipid added (PtdIns 4-kinase [1]): 0%
- phosphorylation of lipid by the purified enzyme (PtdIns 4-kinase [1]): would not phosphorylate

Compound: phosphatidylinositol 4-phosphate [PtdIns-4-P]
- Relative activity with lipid added (PtdIns 4-kinase [1]): 0%
- phosphorylation of lipid by the purified enzyme (PtdIns 4-kinase [1]): lacked detectable PtdIns-4-P 5-kinase activity
- effectiveness as inhibitor (PtdIns 4-kinase [3]): Neither PtdIns-4-P or PtdIns-4,5-P2 were effective inhibitors
- inhibition (PtdIns 4-kinase [3]): 42%
- Relative activity with potential inhibitor (PtdIns 4-kinase [3]; inhibitor 0.02 mg/ml): 99%
- Relative activity with potential inhibitor (PtdIns 4-kinase [3]; inhibitor 0.10 mg/ml): 105%
- Relative activity with potential inhibitor (PtdIns 4-kinase [3]; inhibitor 0.50 mg/ml): 58%

Second part, led by results:

- Relative activity with lipid added (PtdIns 4-kinase [1]): 0%
- phosphorylation of lipid by the purified enzyme (PtdIns 4-kinase [1]): lacked diacylglycerol kinase activity
Compound: CCCCC/C=C\C/C=C\C/C=C\C/C=C\CCCC(=O)O[C@@H](CO)COC(=O)CCCCCCCCCCCCCCCCC [1-Stearoyl-2-arachidonoyl-sn-glycerol]

- activity at 150 µM (PtdIns 4-kinase [2]; [4]): 5%
Compound: Nc1nc2c(ncn2[C@@H]2O[C@H](COP(=O)(O)OP(=O)(O)OP(=O)(O)O)[C@@H](O)[C@H]2O)c(=O)[nH]1 [GTP]
- utilization as phosphoryl donor (words) (PtdIns 4-kinase [2]): No PtdIns-4-P was observed; also recorded: No PtdIns-4-P 5-kinase activity was present

- activity at 150 µM (PtdIns 4-kinase [2]; [4]): 11%
Compound: O=c1[nH]cnc2c1ncn2[C@@H]1O[C@H](COP(=O)(O)OP(=O)(O)OP(=O)(O)O)[C@@H](O)[C@H]1O [ITP]
- utilization as phosphoryl donor (words) (PtdIns 4-kinase [2]): No PtdIns-4-P was observed; also recorded: No PtdIns-4-P 5-kinase activity was present

- effectiveness as inhibitor (PtdIns 4-kinase [3]): ineffective as inhibitors
- Relative activity with potential inhibitor (PtdIns 4-kinase [3]; inhibitor 1.0 mM): 98%
Compound: O=P(O)(O)O[C@H]1[C@H](O)[C@@H](O)[C@H](OP(=O)(O)O)[C@@H](O)[C@H]1O [Ins-1,4-P2]

- effectiveness as inhibitor (PtdIns 4-kinase [3]): ineffective as inhibitors
- Relative activity with potential inhibitor (PtdIns 4-kinase [3]; inhibitor 1.0 mM): 89%
Compound: O=P(O)(O)OC1[C@H](O)[C@H](O)C(O)[C@H](O)[C@H]1O (stereo partly drawn) [Ins-1-P]

- Relative activity with nucleotide donor (PtdIns 4-kinase [2]; [4]): 3
Compound: Cc1cn([C@H]2C[C@H](O)[C@@H](COP(=O)(O)OP(=O)(O)OP(=O)(O)O)O2)c(=O)[nH]c1=O [TTP]

- activity at 150 µM (PtdIns 4-kinase [2]; [4]): 18%
Compound: O=c1ccn([C@@H]2O[C@H](COP(=O)(O)OP(=O)(O)OP(=O)(O)O)[C@@H](O)[C@H]2O)c(=O)[nH]1 [UTP]
- utilization as phosphoryl donor (words) (PtdIns 4-kinase [2]): A small amount of PtdIns-4-P was observed

- utilization as phosphoryl donor (words) (PtdIns 4-kinase [2]; listed as 2'-deoxy-ATP): utilized
- utilization as phosphoryl donor (words) (PtdIns 4-kinase [2]; listed as 2-deoxy-ATP): utilized; also recorded: will utilize
- activity at 150 µM (PtdIns 4-kinase [2]; [4]): 104%
Compound: Nc1ncnc2c1ncn2[C@H]1C[C@H](O)[C@@H](COP(=O)(O)OP(=O)(O)OP(=O)(O)O)O1 [dATP, 2'-deoxy-ATP]

- utilization as phosphoryl donor (words) (PtdIns 4-kinase [2]; listed as 2,3-Dideoxy-ATP): partially effective
- utilization as phosphoryl donor (words) (PtdIns 4-kinase [2]; listed as 2,3-dideoxy-ATP): to a lesser degree will utilize
- activity at 150 µM (PtdIns 4-kinase [2]; [4]): 39%
Compound: Nc1ncnc2c1ncn2[C@H]1CC[C@@H](COP(=O)(O)OP(=O)(O)OP(=O)(O)O)O1 [ddATP, 2,3-Dideoxy-ATP]

- phosphorylation relative to soybean PtdIns, by subsequent TLC (PtdIns 4-kinase [1]; TLC of the reactions): about 10%
- Relative activity with lipid added (PtdIns 4-kinase [1]): 0%
Compound: L-α-lysophosphatidylinositol [Lyso-PtdIns]

- Relative activity with lipid added (PtdIns 4-kinase [1]): 1%
- phosphorylation of lipid by the purified enzyme (PtdIns 4-kinase [1]): no phosphorylation
Compound: L-α-phosphatidyl-L-serine [Phosphatidylserine]

- Relative activity with lipid added (PtdIns 4-kinase [1]): 0%
- phosphorylation of lipid by the purified enzyme (PtdIns 4-kinase [1]): no phosphorylation
Compound: L-α-phosphatidylcholine
